Consider seven compounds from PMC10287695, “Non-covalent inhibitors of thioredoxin glutathione reductase with schistosomicidal activity in vivo” (Nature Communications, 2023).

The target of experiment [1] is T1, S. mansoni TGR (Schistosoma mansoni, UniProt Q962Y6).
T1 construct: made in house
T1 sequence (Q962Y6 1-598): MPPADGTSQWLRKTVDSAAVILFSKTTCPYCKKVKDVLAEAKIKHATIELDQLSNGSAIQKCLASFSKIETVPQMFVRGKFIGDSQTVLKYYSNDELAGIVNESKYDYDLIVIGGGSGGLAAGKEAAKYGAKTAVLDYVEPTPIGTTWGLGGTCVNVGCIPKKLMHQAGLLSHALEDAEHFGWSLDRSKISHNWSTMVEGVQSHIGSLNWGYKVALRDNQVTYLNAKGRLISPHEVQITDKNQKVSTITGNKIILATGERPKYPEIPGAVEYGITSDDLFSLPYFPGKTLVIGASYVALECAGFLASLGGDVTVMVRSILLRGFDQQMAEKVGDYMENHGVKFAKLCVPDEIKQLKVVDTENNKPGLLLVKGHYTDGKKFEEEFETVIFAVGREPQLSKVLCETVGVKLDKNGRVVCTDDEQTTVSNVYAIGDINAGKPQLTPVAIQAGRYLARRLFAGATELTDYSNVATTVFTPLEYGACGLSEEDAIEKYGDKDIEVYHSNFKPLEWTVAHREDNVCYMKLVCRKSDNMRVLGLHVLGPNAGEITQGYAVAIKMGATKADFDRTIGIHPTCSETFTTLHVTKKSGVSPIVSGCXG
In words: S. mansoni TGR enzyme inhibition (DTNB reduction). It counts as biochemical.

For experiment [2], the system named is S. mansoni adult worms. As to the kind of experiment: GSH/GSSG ratio in ex vivo adult worms. It counts as cell-based. The conditions noted are these: for Decrease (%) in GSH/GSSG ratio: adult worms, 3 h exposure to compounds at 50 μM. How it is done:
We assessed GSH/GSSG levels experimentally by treating S. mansoni adult worms with 50 µM of compounds, or respective controls 5 µM Auranofin, 50 µM PZQ or 50 µM MZM and 0.01% DMSO for 3 h. Worm homogenate was prepared by washing three times with PBS to remove residual compounds and ten volumes of ice cold 5% sulfosalicylic acid was added. Worms were manually homogenized on ice using VWR Pellet Mixer Adaptor. The worm suspension was centrifuged at 14000 × g, 4 °C for 10 min and the acid supernatants transferred. An equal volume of ice-cold neutralization buffer (500 mM HEPES, pH 8.0) was added to the acid supernatants.
GSH/GSSG assay was performed by diluting the acid supernatant (5-fold) with ice-cold dilution buffer (250 mM HEPES, pH 7.5). Using white opaque luminescence plate on ice, 25 µl of the diluted worm acid supernatant was added each well in triplicates. Total glutathione lysis reagent and GSSG lysis reagent, which contains alkylating agent N-ethylmaleimide (25 mM) were prepared following manufactures protocol and added to respective wells along with blank for background. Total glutathione lysis reagent or oxidized glutathione lysis reagent (25 µl) was added to respective wells containing worm acid supernatants and the plate was shaken for 5 min. Luciferin generation reagent (LGR) (50 µl) was added to all wells, briefly shaken and incubated at room temperature for 30 min. Luciferin detection reagent (LDR) (100 µl) was added to all wells, briefly shaken and incubated for 15 min at room temperature and the luminescence measured using microplate imager (BioTek Cytation3). GSH/GSSH ratio for DMSO control and compounds were calculated using (Net DMSO total glutathione RFU) – (Net DMSO GSSG RFU)/ (Net DMSO GSSG RFU)/2 and (Net inhibitor total glutathione RFU) – (Net inhibitor GSSG RFU)/ (Net inhibitor GSSG RFU)/2 respectively.

Where [3] appears, read: 6 h preincubation (enzyme + 100 µM NADPH + compound).
[4] abbreviates: 1 hr, first data set (r117-133), baseline 55.82.
The mark [5] stands for this setting: 1 hr, first data set (r117-133), baseline = 100.
Setting [6] is: 3 hr, first data set (r117-133), baseline 55.82.
Setting [7] is: 3 hr, first data set (r117-133), baseline = 100.
Setting [8] is: 15 min preincubation (enzyme + 100 µM NADPH + compound).
[9] abbreviates: 6 h preincubation (enzyme + 100 µM NADPH + compound), read-out: S. mansoni TGR inhibition (%) at 66.7 µM.
Setting [10] is: adult worms ex vivo, 1 hr, relative to 0hr.
The mark [11] stands for this setting: adult worms ex vivo, 1 hr, relative to 0hr, values given as fraction.
[12] abbreviates: adult worms ex vivo, 3 hr, relative to 0hr.
[13] abbreviates: adult worms ex vivo, 3 hr, relative to 0hr, values given as fraction.
Where [14] appears, read: TGR, 15 minutes pre-incubation, compound 15 µM, read-out: % inhibition.
[15] abbreviates: TGR, 15 minutes pre-incubation, compound 30 µM, read-out: % inhibition.
Where [16] appears, read: TGR, 15 minutes pre-incubation, compound 66.7 µM, read-out: % inhibition.

Values joined by “and” are separate entries in the source; they are usually repeats but may differ in a detail not shown here. Equal values may be shown once. Read-outs that look alike come from different tables or passages of the source.

Broadly, the IC50 is the concentration that inhibits the measured activity by half. For orientation: inhibition means the drop in the measured response relative to a control, in per cent.

Regarding `C[C@@H]1N=C(c2ccccc2Cl)c2cc([N+](=O)[O-])ccc2NC1=O` [MZM, meclonazepam, reference compound], in experiment [1] (setting [3]), the “S. mansoni TGR inhibition (%) at 66.7 µM” value is given as “n.i.^e”. Besides, the “Ratio GSH/GSSG” value was found to be 55.11 in experiment [2] (setting [4]) and 55.10 in experiment [2] (setting [6]). In addition, the “% Ratio GSH/GSSG” value in experiment [2] (setting [5]) stood at 98.7253%; in experiment [2] (setting [7]) it was 98.7201%.

In the case of `Cc1oc(C2CCCCC2)nc1CN[C@@H]1C[C@@H]2C[C@H]([C@H]1C)C2(C)C` [Compound 4], in experiment [1] (setting [8]), the IC50 was greater than 66.7 µM. In experiment [1] (setting [9]), the inhibition at 66.7 µM is 68.6%. For the same compound, the “Ratio GSH/GSSG” value in experiment [2] (setting [4]) is 28.16; in experiment [2] (setting [6]) it was 18.95. Besides, the “% Ratio GSH/GSSG” value in experiment [2] (setting [5]) is listed as 50.452%; in experiment [2] (setting [7]), 33.9548%. Besides, the “Decrease (%) in GSH/GSSG ratio” value in experiment [2] worked out at 60%.

On to `C[C@@H]1[C@H]2C[C@@H](C[C@H]1NCc1cc(-c3ccccc3)[nH]n1)C2(C)C` [Compound 11], for which the “S. mansoni TGR IC50” value in experiment [1] (setting [8]) was “n.i.^e”. Further, the inhibition at 15 µM in experiment [1] (15 minutes pre-incubation, 15 µM, read-out: TGR % inhibition) is -0.793%; in experiment [1] (6 hours pre-incubation, 15 µM, read-out: TGR % inhibition), 0.749%. The inhibition at 30 µM in experiment [1] (15 minutes pre-incubation, 30 µM, read-out: TGR % inhibition) was 0.411%; in experiment [1] (6 hours pre-incubation, 30 µM, read-out: TGR % inhibition) it was 1.2%. Besides, the inhibition at 66.7 µM in experiment [1] (15 minutes pre-incubation, 66.7 µM, read-out: TGR % inhibition) is 1.81%; in experiment [1] (6 hours pre-incubation, 66.7 µM, read-out: TGR % inhibition) it was 5.65%. Further, the “S. mansoni TGR inhibition (%) at 66.7 µM” value in experiment [1] (setting [3]) is reported as “n.i.^e”. Also, the “% Ratio GSH/GSSG” value in experiment [2] (adult worms ex vivo, 1 hr) turned out to be 59.9789%; in experiment [2] (adult worms ex vivo, 3 hr) it was 59.8685%. The “Reduction (%) in GSH/GSSG ratio” value in experiment [2] (setting [10]) amounted to 1.477%; in experiment [2] (setting [11]), 0.01477%; in experiment [2] (setting [12]) it was 1.659%; in experiment [2] (setting [13]), 0.01659%.

For the compound `Cc1oc(C2CCCCC2)nc1C(=O)N[C@@H]1C[C@@H]2C[C@H]([C@H]1C)C2(C)C` [Compound 7], the IC50 in experiment [1] (setting [8]) stood at 14.6 ± 1.22 µM. Besides, the inhibition at 15 µM in experiment [1] (setting [14]) turned out to be 75.5%. For the same compound, the inhibition at 30 µM in experiment [1] (setting [15]) came out at 88.1%. The inhibition at 66.7 µM in experiment [1] (setting [16]) is 95.1%. Moreover, the “% Ratio GSH/GSSG” value in experiment [2] (adult worms ex vivo, 1 hr) was 52.5902%; in experiment [2] (adult worms ex vivo, 3 hr), 37.7921%. In addition, the “Reduction (%) in GSH/GSSG ratio” value is listed as 13.6142% in experiment [2] (setting [10]), 0.1361% in experiment [2] (setting [11]), 37.9219% in experiment [2] (setting [12]) and 0.3792% in experiment [2] (setting [13]). For the same compound, in experiment [2], the “Decrease (%) in GSH/GSSG ratio” value was 38% and 36.9%.

Regarding `Cc1oc(-c2ccc3ccccc3c2)nc1CNC1CCCCCC1` [Compound 5], the inhibition at 66.7 µM in experiment [1] (setting [9]) was found to be 73%. The “% Ratio GSH/GSSG” value is given as 47.8314% in experiment [2] (adult worms ex vivo, 1 hr) and 26.3574% in experiment [2] (adult worms ex vivo, 3 hr). Further, the “Reduction (%) in GSH/GSSG ratio” value in experiment [2] (setting [10]) was determined as 20.3307%; in experiment [2] (setting [12]) it was 56.0984%. The “Decrease (%) in GSH/GSSG ratio” value in experiment [2] came to 56%.

As to `CC1C(NCc2cn(C3OCC(O)C(O)C3O)c3ccccc23)CC2CC1C2(C)C` (centres unmarked) [Compound 9], the IC50 in experiment [1] (setting [8]) is 57.5 ± 2.46 µM. Also, the inhibition at 1 µM in experiment [1] (TGR, 15 minutes pre-incubation, compound 1 µM) was 3.4%. Also, the inhibition at 5 µM in experiment [1] (TGR, 15 minutes pre-incubation, compound 5 µM) worked out at 11.8%. Also, the inhibition at 15 µM in experiment [1] (setting [14]) was 32.6%. Further, the inhibition at 30 µM in experiment [1] (setting [15]) stood at 49.3%. In experiment [1] (setting [16]), the inhibition at 66.7 µM worked out at 68.2%. Also, the “Ratio GSH/GSSG” value in experiment [2] (1 hr, second data set (r136-144), baseline 63.5617, DMSO 63.4928) is listed as 62.1962; in experiment [2] (1 hr, third data set (r147-159), 0hr 72.45), 71.10; in experiment [2] (3 hr, second data set (r136-144), baseline 63.5617, DMSO 203.124) it was 55.0997; in experiment [2] (3 hr, third data set (r147-159), 0hr 72.45), 64.87. For the same compound, the “Reduction (%) in GSH/GSSG ratio” value is recorded as 1.8641% in experiment [2] (1 hr, third data set); 0.0186% in experiment [2] (1 hr, third data set, (values given as fraction)); 10.4658% in experiment [2] (3 hr, third data set); 0.10% in experiment [2] (3 hr, third data set, (values given as fraction)). For the same compound, the “% Ratio GSH/GSSG” value in experiment [2] (1 hr, third data set (r147-159), 0hr = 100) is given as 98.1359%; in experiment [2] (3 hr, third data set (r147-159), 0hr = 100), 89.5342%. Also, in experiment [2], the “Decrease (%) in GSH/GSSG ratio” value is on record as 9%.

Regarding `O=C(C1CCCCC1)N1CC(=O)N2CCc3ccccc3C2C1` (centres unmarked) [PZQ, praziquantel], the “S. mansoni TGR inhibition (%) at 66.7 µM” value in experiment [1] (setting [3]) is “n.i.^e”. Further, the “Ratio GSH/GSSG” value in experiment [2] (setting [4]) is on record as 55.34; in experiment [2] (setting [6]) it was 55.09. The “% Ratio GSH/GSSG” value in experiment [2] (setting [5]) is given as 99.1418%; in experiment [2] (setting [7]), 98.6979%.
